# Laboratory results reported in patent publication US6953855B2 (priority 1998, dated 2005).
# Biological target: T1, muscle-type receptors (α1β1γδ subtype in human TE671/RD clonal cells) (Homo sapiens, UniProt P02708+P07510+Q07001)
# T1 construct: endogenous in cells; host or cells: human TE671/RD rhabdomyosarcoma cells
# Assay: cell-based
# Conditions: read-out: agonist activity, % of nicotine's response (human muscle)
# T1 sequence (P02708 21-457): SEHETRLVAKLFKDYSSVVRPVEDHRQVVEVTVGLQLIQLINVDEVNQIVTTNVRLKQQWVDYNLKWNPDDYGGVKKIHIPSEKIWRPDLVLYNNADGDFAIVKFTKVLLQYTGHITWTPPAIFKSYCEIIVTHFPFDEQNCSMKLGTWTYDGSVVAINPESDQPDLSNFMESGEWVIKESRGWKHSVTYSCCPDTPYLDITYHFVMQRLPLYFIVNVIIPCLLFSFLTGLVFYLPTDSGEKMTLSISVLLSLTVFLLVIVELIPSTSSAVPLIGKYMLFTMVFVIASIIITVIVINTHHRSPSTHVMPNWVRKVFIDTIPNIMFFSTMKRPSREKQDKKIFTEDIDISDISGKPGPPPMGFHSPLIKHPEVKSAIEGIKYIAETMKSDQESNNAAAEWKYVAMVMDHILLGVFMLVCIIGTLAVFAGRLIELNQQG
# T1 sequence (P11230 24-501 partner): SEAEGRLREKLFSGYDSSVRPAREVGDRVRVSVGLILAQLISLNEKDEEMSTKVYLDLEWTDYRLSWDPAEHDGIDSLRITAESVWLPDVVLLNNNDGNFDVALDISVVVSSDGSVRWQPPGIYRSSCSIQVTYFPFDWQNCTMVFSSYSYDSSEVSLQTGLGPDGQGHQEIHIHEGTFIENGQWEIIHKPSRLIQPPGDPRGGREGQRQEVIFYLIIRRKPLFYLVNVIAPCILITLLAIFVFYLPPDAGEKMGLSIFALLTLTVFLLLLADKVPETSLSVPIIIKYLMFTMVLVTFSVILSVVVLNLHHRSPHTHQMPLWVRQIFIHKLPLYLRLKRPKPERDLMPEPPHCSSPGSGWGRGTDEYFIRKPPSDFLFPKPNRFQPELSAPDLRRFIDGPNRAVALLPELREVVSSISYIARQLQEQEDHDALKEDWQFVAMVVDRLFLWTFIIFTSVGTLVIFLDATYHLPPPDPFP
# T1 sequence (P07510 23-517): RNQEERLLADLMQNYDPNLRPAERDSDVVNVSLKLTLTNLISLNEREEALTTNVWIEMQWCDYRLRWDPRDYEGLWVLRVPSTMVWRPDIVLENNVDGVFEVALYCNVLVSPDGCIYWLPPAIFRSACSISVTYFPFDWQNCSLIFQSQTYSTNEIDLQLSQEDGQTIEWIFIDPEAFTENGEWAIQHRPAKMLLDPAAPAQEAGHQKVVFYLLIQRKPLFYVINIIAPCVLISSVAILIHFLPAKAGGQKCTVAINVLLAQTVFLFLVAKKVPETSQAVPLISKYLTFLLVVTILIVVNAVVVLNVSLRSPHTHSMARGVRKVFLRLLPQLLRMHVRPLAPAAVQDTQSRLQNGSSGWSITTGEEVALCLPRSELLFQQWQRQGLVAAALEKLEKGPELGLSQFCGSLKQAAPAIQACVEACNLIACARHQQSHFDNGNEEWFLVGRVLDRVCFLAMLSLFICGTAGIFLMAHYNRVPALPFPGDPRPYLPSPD
# T1 sequence (Q07001 22-517): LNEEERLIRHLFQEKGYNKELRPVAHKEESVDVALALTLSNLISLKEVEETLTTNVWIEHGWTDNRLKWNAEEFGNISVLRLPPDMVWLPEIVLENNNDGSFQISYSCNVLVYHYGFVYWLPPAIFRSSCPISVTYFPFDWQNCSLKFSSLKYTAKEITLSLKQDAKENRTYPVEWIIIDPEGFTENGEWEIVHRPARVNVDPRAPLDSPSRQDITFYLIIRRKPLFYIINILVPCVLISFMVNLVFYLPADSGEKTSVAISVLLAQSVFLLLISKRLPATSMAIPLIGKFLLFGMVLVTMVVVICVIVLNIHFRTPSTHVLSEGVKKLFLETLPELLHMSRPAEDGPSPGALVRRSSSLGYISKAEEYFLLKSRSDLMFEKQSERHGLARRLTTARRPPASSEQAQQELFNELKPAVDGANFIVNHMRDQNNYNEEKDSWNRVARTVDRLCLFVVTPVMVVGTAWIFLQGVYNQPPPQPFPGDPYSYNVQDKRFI
row,SMILES,activation at 100 µM
1,"O=C(Nc1ccc(Br)cc1)OC1C2CCN(CC2)C1Cc1cccnc1 (centres unmarked) [Compound 1, 2-((3-pyridinyl)methyl)-1-azabicyclo[2.2.2]oct-3-yl N-(4-bromophenyl)carbamate]",1 to 12%
2,"O=C(Nc1ccc(F)cc1)OC1C2CCN(CC2)C1Cc1cccnc1 (centres unmarked) [Compound 3, 2-((3-pyridinyl)methyl)-1-azabicyclo[2.2.2]oct-3-yl N-(4-fluorophenyl)carbamate]",1 to 12%
3,"COc1ccc(NC(=O)OC2C3CCN(CC3)C2Cc2cccnc2)cc1 (centres unmarked) [Compound 4, 2-((3-pyridinyl)methyl)-1-azabicyclo[2.2.2]oct-3-yl N-(4-methoxyphenyl)carbamate]",1 to 12%
4,"CSc1ccc(NC(=O)OC2C3CCN(CC3)C2Cc2cccnc2)cc1 (centres unmarked) [Compound 5, 2-((3-pyridinyl)methyl)-1-azabicyclo[2.2.2]oct-3-yl N-(4-methylthiophenyl)carbamate]",1 to 12%
5,"O=C(NC1C2CCN(CC2)C1Cc1cccnc1)c1ccc(F)cc1 (centres unmarked) [Compound 8, N-(2-((3-pyridinyl)methyl)-1-azabicyclo[2.2.2]oct-3-yl)-4-fluorobenzamide]",1 to 12%
6,"O=C(NC1C2CCN(CC2)C1Cc1cccnc1)c1cc2ccccc2o1 (centres unmarked) [Compound 9, N-(2-((3-pyridinyl)methyl)-1-azabicyclo[2.2.2]oct-3-yl)benzofuran-2-carboxamide]",1 to 12%
7,"O=C(NC1C2CCN(CC2)C1Cc1cccnc1)c1ccc(Br)cc1 (centres unmarked) [Compound 10, N-(2-((3-pyridinyl)methyl)-1-azabicyclo[2.2.2]oct-3-yl)-4-bromobenzamide]",1 to 12%
8,"O=C(NC1C2CCN(CC2)C1Cc1cccnc1)c1ccccc1 (centres unmarked) [Compound 13, N-(2-((3-pyridinyl)methyl)-1-azabicyclo[2.2.2]oct-3-yl)benzamide]",1 to 12%
9,"COc1cccc(C(=O)NC2C3CCN(CC3)C2Cc2cccnc2)c1 (centres unmarked) [Compound 14, N-(2-((3-pyridinyl)methyl)-1-azabicyclo[2.2.2]oct-3-yl)-3-methoxybenzamide]",1 to 12%
10,"O=C(NC1C2CCN(CC2)C1Cc1cccnc1)c1cccc(Br)c1 (centres unmarked) [Compound 15, N-(2-((3-pyridinyl)methyl)-1-azabicyclo[2.2.2]oct-3-yl)-3-bromobenzamide]",1 to 12%
11,"O=C(Nc1ccccc1)NC1C2CCN(CC2)C1Cc1cccnc1 (centres unmarked) [Compound 16, N-phenyl-N′-(2-((3-pyridinyl)methyl)-1-azabicyclo[2.2.2]oct-3-yl)urea]",1 to 12%
12,"O=C(Nc1ccc(Oc2ccccc2)cc1)NC1C2CCN(CC2)C1Cc1cccnc1 (centres unmarked) [Compound 17, N-(4-phenoxyphenyl)-N′-(2-((3-pyridinyl)methyl)-1-azabicyclo[2.2.2]oct-3-yl)urea]",1 to 12%
13,"CSc1ccc(NC(=O)NC2C3CCN(CC3)C2Cc2cccnc2)cc1 (centres unmarked) [Compound 18, N-(4-methylthiophenyl)-N′-(2-((3-pyridinyl)methyl)-1-azabicyclo[2.2.2]oct-3-yl)urea]",1 to 12%
14,"O=C(Nc1cccc(F)c1)NC1C2CCN(CC2)C1Cc1cccnc1 (centres unmarked) [Compound 19, N-(3-fluorophenyl)-N′-(2-((3-pyridinyl)methyl)-1-azabicyclo[2.2.2]oct-3-yl)urea]",1 to 12%
15,"O=C(Nc1ccc(Br)cc1)NC1C2CCN(CC2)C1Cc1cccnc1 (centres unmarked) [Compound 20, N-(4-bromophenyl)-N′-(2-((3-pyridinyl)methyl)-1-azabicyclo[2.2.2]oct-3-yl)urea]",1 to 12%
16,"COc1ccccc1NC(=O)NC1C2CCN(CC2)C1Cc1cccnc1 (centres unmarked) [Compound 21, N-(2-methoxyphenyl)-N′-(2-((3-pyridinyl)methyl)-1-azabicyclo[2.2.2]oct-3-yl)urea]",1 to 12%
17,"COc1ccc(NC(=O)NC2C3CCN(CC3)C2Cc2cccnc2)c(OC)c1 (centres unmarked) [Compound 22, N-(2,4-dimethoxyphenyl)-N′-(2-((3-pyridinyl)methyl)-1-azabicyclo[2.2.2]oct-3-yl)urea]",1 to 12%
18,"O=C(Nc1ccc(Cl)c(Cl)c1)NC1C2CCN(CC2)C1Cc1cccnc1 (centres unmarked) [Compound 23, N-(3,4-dichlorophenyl)-N′-(2-((3-pyridinyl)methyl)-1-azabicyclo[2.2.2]oct-3-yl)urea]",1 to 12%
19,"COc1ccc(NC(=O)NC2C3CCN(CC3)C2Cc2cccnc2)cc1 (centres unmarked) [Compound 24, N-(4-methoxyphenyl)-N′-(2-((3-pyridinyl)methyl)-1-azabicyclo[2.2.2]oct-3-yl)urea]",1 to 12%
20,"CN(C)c1ccc(NC(=O)NC2C3CCN(CC3)C2Cc2cccnc2)cc1 (centres unmarked) [Compound 25, N-(4-dimethylaminophenyl)-N′-(2-((3-pyridinyl)methyl)-1-azabicyclo[2.2.2]oct-3-yl)urea]",1 to 12%
21,"CN(C(=O)Nc1ccccc1)C1C2CCN(CC2)C1Cc1cccnc1 (centres unmarked) [Compound 26, N-phenyl-N′-methyl-N′-(2-((3-pyridinyl)methyl)-1-azabicyclo[2.2.2]oct-3-yl)urea]",1 to 12%
22,"CN(C(=O)Nc1ccc(Br)cc1)C1C2CCN(CC2)C1Cc1cccnc1 (centres unmarked) [Compound 27, N-(4-bromophenyl)-N′-methyl-N′-(2-((3-pyridinyl)methyl)-1-azabicyclo [2.2.2]oct-3-yl)urea]",1 to 12%
23,"O=C(C=Cc1ccccc1)NC1C2CCN(CC2)C1Cc1cccnc1 (centres unmarked) [Compound 28, N-(2-((3-pyridinyl)methyl)-1-azabicyclo[2.2.2]oct-3-yl)3-phenylprop-2-enamide]",1 to 12%
24,"O=C(C=Cc1ccc(Cl)cc1)NC1C2CCN(CC2)C1Cc1cccnc1 (centres unmarked) [Compound 29, N-(2-((3-pyridinyl)methyl)-1-azabicyclo[2.2.2]oct-3-yl)-3-(4-chlorophenyl)prop-2-enamide]",1 to 12%
25,"O=C(C=Cc1ccc(Br)cc1)NC1C2CCN(CC2)C1Cc1cccnc1 (centres unmarked) [Compound 30, N-(2-((3-pyridinyl)methyl)-1-azabicyclo[2.2.2]oct-3-yl)-3-(4-bromophenyl)prop-2-enamide]",1 to 12%
26,"O=C(C=Cc1cccc(O)c1)NC1C2CCN(CC2)C1Cc1cccnc1 (centres unmarked) [Compound 31, N-(2-((3-pyridinyl)methyl)-1-azabicyclo[2.2.2]oct-3-yl)-3-(3-hydroxyphenyl)prop-2-enamide]",1 to 12%
27,"COc1cccc(C=CC(=O)NC2C3CCN(CC3)C2Cc2cccnc2)c1 (centres unmarked) [Compound 32, N-(2-((3-pyridinyl)methyl)-1-azabicyclo[2.2.2]oct-3-yl)-3-(3-methoxyphenyl)prop-2-enamide]",1 to 12%
28,"O=C(C=Cc1ccccc1F)NC1C2CCN(CC2)C1Cc1cccnc1 (centres unmarked) [Compound 33, N-(2-((3-pyridinyl)methyl)-1-azabicyclo[2.2.2]oct-3-yl)-3-(2-fluorophenyl)prop-2-enamide]",1 to 12%
29,"O=C(C=Cc1ccccc1O)NC1C2CCN(CC2)C1Cc1cccnc1 (centres unmarked) [Compound 34, N-(2-((3-pyridinyl)methyl)-1-azabicyclo[2.2.2]oct-3-yl)-3-(2-hydroxyphenyl)prop-2-enamide]",1 to 12%
